According to US5877154A, “Pharmaceutical compositions for the treatment or prevention of disorders in the eye” (Ramot University Authority for Applied Research and …, priority 1992, dated 1999):

How the values were obtained:
[1] = system: human skin fibroblast (HSF) cell culture; experiment: 3H-Thymidine uptake by human skin fibroblast cell culture; assay type: cell-based; details: bFGF 9 ng/ml; EGF 10 ng/ml; melanotropin 10^-6 M and 10^-7 M; serum free medium, FIG. 2
Method: HSF cells were grown in DMEM (Dulbeccos Modified Eagles Media) supplemented with 10% heat inactivated fetal calf serum, 2 mM glutamine and antibiotics (100 U/mi penicillin G, 0.25 mg/ml amphotericin B and 0.1 mg/ml streptomycin) (Biological Industries, Beth Haemek, Israel) in 56.7 cm^2 tissue culture flasks (Nunc, Roskilde, Denmark) at 37° C. in a 10% CO2 humidified atmosphere incubator. When the cells reached confluency, they were tripsinized by incubation with 0.083% tripsine (Biological Industries, Beth HaEmek, Israel) for a few minutes at 37° C. and seeded (please complete). The growth medium of the cells with or without drugs was changed twice a week.
The wells were then divided into five groups and a different medium was added to the wells of each group as described in Example 1. The medium added to each of the five groups was: (1) serum free medium containing melanotropin 10^-6 M; (2) serum free medium containing melanotropin 10^-7 M; (3) serum free medium containing EGF 10 ng/ml; (4) serum free medium containing bFGF 9 nn/ml; and (5) serum free medium only.
The degree of ^3 H-Thymidine uptake by human skin fibroblast was determined as described in Example 1.

bovine RPE cells = experiment: wound closure technique: proliferation and migration of RPE cells over denuded area; assay type: cell-based; details: bFGF 10^-10 mg/ml
Method: The ability of RPE cells to proliferate and migrate over denuded areas was measured using a slight modification of the previously known technique termed "wound closure technique" (Jumblatt and Neufeld, 1986).
In this example bovine RPE cells were grown as described in Example 1 and plated in microwell plates containing 16 ml wells. When the cultures reached confluency, sloughing of the cells from a centrally located area in each well was carried out using a very sharp blade. In order to remove non adherent cells, each well was rinsed with a 1 ml Earle's balanced salt solution (EBSS: Gibco). The cultures were photographed at the time of the sloughing and at 12, 24 and 48 hours after the sloughing procedure. In this way the size of the denuded area in the culture at the time of the sloughing was documented and could be compared later to the same cultures at different time periods after the denudation.
The ability of the bovine RPE cells to proliferate and migrate over the denuded area in the well was determined by analyzing the covered and uncovered area in the photographs of the cultures taken at different time periods as described in Jumblatt & Neufeld (ibid). The rate of the "wound" closure was calculated as mm^2 per hour or as the percentage of the covered area in the culture wells at a specific time period.
The bovine RPE cell cultures were divided into six groups. […]

[2] = system: bovine vascular endothilial cells (ABAE); experiment: 3H-Thymidine uptake by bovine vascular endothelial cells; assay type: cell-based; details: bFGF 9 ng/ml; EGF 10 ng/ml; melanotropin 10^-6 M and 10^-7 M; single set of experiments
Method: ABAE cells were grown in DMEM (Dulbeccos Modified Eagles Media) supplemented with 5% heat inactivated fetal calf serum, 5% heat inactivated newborn calf serum, 2 mM glutamine and antibiotics (100 U/ml penicillin G, 0.25 mg/ml amphotericin B and 0.1 mg/ml streptomycin) (all from Biological Industries, Beth HaEmek, Israel) in 56.7 cm^2 tissue culture dishes (Nunc, Roskilde, Denmark) at 37° C. in a humidified atmosphere incubator with 10% CO2.
The cultures were supplemented every other day with 10^-9 ng/ml of bFGF until they reached confluency.
The cells were then trypsinized by adding 0.041% trypsin (Biological Industries, Beth HaEmek, Israel) for a few minutes at 37° C. The cells were then diluted by a factor of six and plated in microwell plates. Growth medium was changed twice a week.
The cells were then divided into five groups as described in Examples 1 and 2 and a different medium was added to the wells of each group as follows: (1) serum free medium containing melanotropin 10^-6 M; (2) serum free medium containing melanotropin 10^-7 M; (3) serum free medium containing EGF 10 ng/ml; (4) serum free medium containing bFGF 9 ng/ml; and (5) serum free medium alone.
The degree of ^3 H-Thymidine uptake by the cells was again determined as described in Examples 1 and 2.

[3] = system: leukotriene B4 (LTB4) production in the corneas; experiment: LTB4 production in corneas of rats exposed to UV irradiation; assay type: in vivo, albino rats; details: dexamethasone 4 mg/kg per day, melanotropin 10 μg/kg per day, irradiated untreated 2.47±0.8
Method: The antinflammatory activity of melanotropin in the eye was measured by the ability of the melanotropin to inhibit the production of the leukotriene (LTB4) which is produced during the inflammatory response elicited by noxious stimulae to the cornea.
The ability of melanotropin to inhibit an inflammatory response was determined in corneas of albino rats subjected to UV irradiation. The parameter used to measure the inflammatory response was the amount of production of leukotriene B4--known for its modulatory action in inflammation.
One eye of albino rats of either sex weighing 200-250 gm was exposed to UV irradiation (200-400 nm) for 15 min. daily for 4 consecutive days. The other contralateral eye of each rat was not exposed to the irradiation and served as a control. […]
In the treated group of animals, the specific treatment began each day within one hour after the UV exposure. […] At the end of the incubation, a sample was obtained from the medium and the contents of the leukotrien B4 (LTB4) was determined by a radioimmunoassay (RIA) technique using a New England Nuclear Kit with a specific antibody against LTB4.

[4] = system: prostaglandin type E2 (PGE2) production; experiment: PGE2 production in eyes of rats exposed to UV irradiation; assay type: in vivo, albino rats; details: dexamethasone 4 mg/kg per day, melanotropin 10 μg per day
Method: One eye of albino rats of either sex weighing 200-250 gm was exposed to UV irradiation (200-400 nm) for 15 min. daily for 4 consecutive days. The other contralateral eye of each rat was not exposed to the irradiation and served as a control.
The animals were divided into three groups (8 rats in each group) as follows: (1) untreated; (2) rabbits exposed to UV irradiation and a daily intermuscular (i.m.) injection of 4 mg/kg dexamethasone; and (3) rabbits exposed to UV irradiation and treated with a daily injection (i.m.) of 10 μg/kg of melanotropin.
In the treated group of animals, the specific treatment began each day within one hour after the UV exposure. The animals were sacrificed two days following the last UV irradiation and the eyes were frozen at -70° C. The cornea was disected and incubated in a shaking bath at 37° C. for 40 mins. in a Heppes buffer (pH=7.4). At the end of the incubation, a sample was obtained from the medium and the contents of the leukotrien B4 (LTB4) was determined by a radioimmunoassay (RIA) technique using a New England Nuclear Kit with a specific antibody against LTB4.
The production of prostaglandin type E2 (PGE2) was also measured in the eyes of three groups of rats. The amount of PGE2 in the eyes exposed to UV irradiation was higher than in the nonirradiated control eyes (4.1±1.9 pg/mg weight as compared to 1.8±0.3 pg/mg weight, p=0.001).

Compound: bFGF: basic fibroblast growth factor, comparison growth factor
- 3H-Thymidine uptake of human skin fibroblasts as compared to cells treated with medium alone [1]: five-fold increase
- cell covered area in the wells (bovine RPE cells; 12 hours after the wounding): 11.4±1.1 mm^2
- cell covered area in the culture (bovine RPE cells; 48 hours after addition, p<0.05 vs medium alone): 21.1±0.7 mm^2
- 3H-Thymidine uptake by the bovine vascular endothilium cells [2]: significant induction

Compound: C[C@@H]1C[C@H]2[C@@H]3CCC4=CC(=O)C=C[C@]4(C)[C@@]3(F)[C@@H](O)C[C@]2(C)[C@@]1(O)C(=O)CO [dextamethasone, dexamethasone]
- LTB4 produced by the corneas of the UV irradiated eyes [3]: 9.38±2.4 pg/mg weight
- PGE2 produced by UV irradiated corneas compared with irradiated but untreated corneas [4]: lower than the amount of the PGE2 in the irradiated but untreated rats' corneas

Compound: EGF: Epidermal growth factor, comparison growth factor
- 3H-Thymidine uptake of human skin fibroblasts as compared to cells treated with medium alone [1]: did not cause any increase
- 3H-Thymidine uptake by the bovine vascular endothilium cells [2]: significant induction
